Measurements taken from patent US4968698A, “Nitrogen containing heterocyclic compounds” (Burroughs Wellcome Co., priority 1984, dated 1990).
≈ marks a conversion by molar mass, not a printed value. Where two headings read alike, the source gives them in different places.

Test system: Trichomonas vaginalis
Assay: In vitro activity against T. vaginalis (IC50 determination)
Format: cell-based
Details: 37° C., aerobic, Modified Diamonds Medium
Procedure: The antiprotozoal e.g. antitrichomonal, activity of the compounds of the present invention may be assessed by conventional methods, for example by determining the minimum inhibition concentration (m.i.c.) or 50% inhibition level (IC50).
Modified Diamonds Medium (MDM) was prepared according to the method described in J. Kulda et al., American Journal of Obstetrics and Gynaecology 1970, 108, 908-18 and 4 cm^3 of the medium was pipetted into each of a series of tubes (usually 16 tubes). To each tube was added 0.5 cm^3 of varying concentration of a solution (usually in ethanol+MDM) or suspension of the test drug. Duplicate tubes for each drug concentration were prepared.
Finally, to each tube was added T. vaginalis (0.5 cm^3) at a concentration of 1×10^5 cm^-3,) to give a final trichomonad concentration of 1×10^4 cm^-3 in each tube. The tubes were then incubated (aerobically) at 37° C. and the resulting trichomonad numbers were counted at 24 and 48 hours using a haemacytometer.
This information was then used to determine the 50% inhibition concentration (IC50).

[1] = 24 hr, 1×10^4 trichomonads cm^-3, read-out: IC50 24 hr
[2] = 48 hr, 1×10^4 trichomonads cm^-3, read-out: IC50 48 hr

IC50 [1] | IC50 [2] | Compound
8 µg/mL (≈ 20 µM) | 8 µg/mL (≈ 20 µM) | COc1ccc(C=CC2=NCCc3cc(OCc4ccccc4)ccc32)c(OC)c1 [Example 56, 6-Benzyloxy-3,4-dihydro-1-(2,4-dimethoxystyryl)isoquinoline]
2.7 µg/mL (≈ 6.36 µM) | 6.1 µg/mL (≈ 14.4 µM) | Brc1csc(/C=C/C2=NCCc3cc(OCc4ccccc4)ccc32)c1 [Example 108, (E)-6-Benzyloxy-3,4-dihydro-1-[2-(4-bromo-2-thienyl)vinyl]isoquinoline]
5.6 µg/mL (≈ 14.2 µM) | 10.5 µg/mL (≈ 26.5 µM) | CC(C)(C)c1ccc(C=CC2=NCCc3cc(OCc4ccccc4)ccc32)cc1 [Example 60, 6-Benzyloxy-1-(4-t-butylstyryl)-3,4-dihydroisoquinoline]
0.8 µg/mL (≈ 1.85 µM) | 1.1 µg/mL (≈ 2.54 µM) | CCCOc1cc2c(cc1OCCC)C(C=Cc1ccc(Cl)cc1Cl)=NC(C)C2 (stereo not shown) [Example 158, 1-(2,4-Dichlorostyryl)-3,4-dihydro-3-methyl-6,7-dipropyloxyisoquinoline]
1.7 µg/mL (≈ 3.81 µM) | 3.1 µg/mL (≈ 6.95 µM) | CCCc1c2c(cc(OC)c1OCc1ccccc1)C(C=Cc1ccc(Cl)cc1)=NCC2 [Example 176, 6-Benzyloxy-1-(4-chlorostyryl)-3,4-dihydro-7-methoxy-5-propylisoquinoline]
1.1 µg/mL (≈ 2.95 µM) | 1.3 µg/mL (≈ 3.49 µM) | C=CCCOc1ccc2c(c1)CCN=C2C=Cc1ccc(Cl)cc1Cl [Example 46, 6-(But-3-enyloxy)-1-(2,4-dichlorostyryl)-3,4-dihydroisoquinoline]
1 µg/mL (≈ 2.81 µM) | 1.6 µg/mL (≈ 4.5 µM) | CCCc1c(O)c(OC)cc2c1CCN=C2C=Cc1ccccc1Cl [Example 180, 1-(2-Chlorostyryl)-3,4-dihydro-6-hydroxy-7-methoxy-5-propylisoquinoline]
0.8 µg/mL (≈ 1.8 µM) | 1.8 µg/mL (≈ 4.04 µM) | C(=Cc1ccccc1)C1=NCCc2c1ccc(OCc1ccccc1)c2OCc1ccccc1 [Example 171, 5,6-Bis(benzyloxy)-3,4-dihydro-1-styrylisoquinoline]
1.2 µg/mL (≈ 3.15 µM) | 128 µg/mL (≈ 336 µM) | CCCCOc1ccc2c(c1)CCN=C2C=Cc1ccc(-c2ccccc2)cc1 [Example 24, 6-Butyloxy-3,4-dihydro-1-(4-phenylstyryl)isoquinoline]
0.7 µg/mL (≈ 2.14 µM) | 1.2 µg/mL (≈ 3.68 µM) | CCCOc1ccc2c(c1)CCN=C2/C=C/c1ccc([N+](=O)[O-])o1 [Example 113, (E)-3,4-Dihydro-6-propyloxy-1-[2-(5-nitro-2-furyl)]vinyl isoquinoline]
1.3 µg/mL (≈ 3.66 µM) | 1.6 µg/mL (≈ 4.5 µM) | CCCCOc1ccc2c(c1)CCN=C2/C=C/c1cccc2ccccc12 [Example 135, (E)-6-Butyloxy-3,4-dihydro-1-[2-(1-naphthyl)vinyl]isoquinoline]
1.4 µg/mL (≈ 3.79 µM) | 2 µg/mL (≈ 5.41 µM) | COc1ccc(OCc2ccccc2)c2c1C(C=Cc1ccccc1)=NCC2 [Example 174, 5-Benzyloxy-3,4-dihydro-8-methoxy-1-styryl-isoquinoline]
0.5 µg/mL (≈ 1.05 µM) | 1 µg/mL (≈ 2.1 µM) | Clc1ccc(C=CC2=NCCc3cc(OCc4ccc(Cl)cc4Cl)ccc32)c(Cl)c1 [Example 92, 6-(2,4-Dichlorobenzyloxy)-1-(2,4-dichlorostyryl)-3,4-dihydroisoquinoline]
1.1 µg/mL (≈ 3.24 µM) | 1.7 µg/mL (≈ 5 µM) | CC(C)COc1ccc2c(c1)CCN=C2C=Cc1ccccc1Cl [Example 47, 1-(2-Chlorostyryl)-3,4-dihydro-6-(2-methylpropyloxy)-isoquinoline]
0.2 µg/mL (≈ 0.588 µM) | 0.2 µg/mL (≈ 0.588 µM) | CCCCOc1ccc2c(c1)CCN=C2/C(Cl)=C/c1ccccc1 [Example 150]
0.6 µg/mL (≈ 1.44 µM) | 2 µg/mL (≈ 4.81 µM) | C(=Cc1ccc(-c2ccccc2)cc1)C1=NCCc2cc(OCc3ccccc3)ccc21 [Example 82]
0.7 µg/mL (≈ 1.74 µM) | 1 µg/mL (≈ 2.49 µM) | CC(C)(C)CCOc1ccc2c(c1)CCN=C2C=Cc1ccc(Cl)cc1Cl [Example 33, 1-(2,4-Dichlorostyryl)-3,4-dihydro-6-(3,3-dimethylbutyloxy)isoquinoline]
0.3 µg/mL (≈ 0.939 µM) | 0.5 µg/mL (≈ 1.57 µM) | CCCCOc1ccc2c(c1)CCN=C2/C(C)=C/c1ccccc1 [Example 153, (E)-6-Butyloxy-3,4-dihydro-1-(2-phenyl-1-methylvinyl)isoquinoline]
10 µg/mL (≈ 28.5 µM) | 13.5 µg/mL (≈ 38.5 µM) | CCCCOc1ccc2c(c1)CCN=C2C=Cc1ccc([N+](=O)[O-])cc1 [Example 19, 6-Butyloxy-3,4-dihydro-1-(4-nitrostyryl)isoquinoline]
9 µg/mL (≈ 19.2 µM) | 10 µg/mL (≈ 21.4 µM) | CCCCCCOc1cc2c(cc1OCCCCCC)C(C=Cc1ccc(Cl)cc1)=NCC2 [Example 165, 1-(4-Chlorostyryl)-6,7-dihexyloxy-3,4-dihydroisoquinoline]
5 µg/mL (≈ 12.4 µM) | 5.3 µg/mL (≈ 13.1 µM) | O=[N+]([O-])c1ccc(C=CC2=NCCc3cc(Oc4ccc(Cl)cc4)ccc32)cc1 [Example 68, 6-(4-Chlorophenoxy)-3,4-dihydro-1-(4-nitrostyryl)-isoquinoline]

IC50 [1] | IC50 [2] | Compound
3.3 µg/mL (≈ 9.9 µM) | 0.9 µg/mL (≈ 2.7 µM) | CCCCCCOc1ccc2c(c1)CCN=C2C=Cc1ccccc1 [Example 74, 6-Hexyloxy-3,4-dihydro-1-styrylisoquinoline]
0.3 µg/mL (≈ 0.802 µM) | 0.3 µg/mL (≈ 0.802 µM) | Cl/C(=C\c1ccccc1)C1=NCCc2cc(OCc3ccccc3)ccc21 [Example 151, (Z)-6-Benzyloxy-1-(1-chloro-2-phenylvinyl)-3,4-dihydroisoquinoline]
1 µg/mL (≈ 1.94 µM) | 3.2 µg/mL (≈ 6.22 µM) | Clc1ccc(C=CC2=NCCc3cc(OCc4ccccc4)c(OCc4ccccc4)cc32)c(Cl)c1 [Example 170, 6,7-Bisbenzyloxy-1-(2,4-dichlorostyryl)-3,4-dihydroisoquinoline]
1.1 µg/mL (≈ 2.37 µM) | 1.6 µg/mL (≈ 3.45 µM) | CC(C)(C)c1ccc(COc2ccc3c(c2)CCN=C3C=Cc2ccc(Cl)cc2Cl)cc1 [Example 81, 6-(4-t-Butylbenzyloxy)-1-(2,4-dichlorostyryl)-3,4-dihydroisoquinoline]
2 µg/mL (≈ 6.42 µM) | 6.7 µg/mL (≈ 21.5 µM) | CCCCOc1ccc2c(c1)CCN=C2/C=C/c1cccs1 [Example 105, (E)-6-Butyloxy-3,4-dihydro-1-[2-(2-thienyl)vinyl]isoquinoline]
1.8 µg/mL (≈ 4.37 µM) | 2.1 µg/mL (≈ 5.1 µM) | CCCCOc1cc2c(cc1OCCCC)C(C=Cc1ccc(Cl)cc1)=NCC2 [Example 157, 6,7-Dibutyloxy-1-(4-chlorostyryl)-3,4-dihydroisoquinoline]
1.2 µg/mL (≈ 3.33 µM) | 1.6 µg/mL (≈ 4.45 µM) | Clc1ccc(C=CC2=NCCc3cc(Oc4ccccc4)ccc32)cc1 [Example 65, 1-(4-Chlorostyryl)-3,4-dihydro-6-phenoxy-isoquinoline]
2.5 µg/mL (≈ 6.32 µM) | 2.4 µg/mL (≈ 6.07 µM) | CC(C)(C)c1ccc(COc2ccc3c(c2)CCN=C3C=Cc2ccccc2)cc1 [Example 80, 6-(4-t-Butylbenzyloxy)-3,4-dihydro-1-styrylisoquinoline]
0.4 µg/mL (≈ 1.01 µM) | 1 µg/mL (≈ 2.54 µM) | COc1ccc(OCc2ccccc2)c2c1C(C=Cc1ccc(C#N)cc1)=NCC2 [Example 175, 5-Benzyloxy-1-(4-cyanostyryl)-3,4-dihydro-8-methoxyisoquinoline]
0.2 µg/mL (≈ 0.52 µM) | 0.3 µg/mL (≈ 0.781 µM) | CCCCOc1ccc2c(c1)CCN=C2/C(Br)=C/c1ccccc1 [Example 147, (Z)-6-Butyloxy-1-(1-bromo-2-phenylvinyl)-3,4-dihydroisoquinoline]
0.3 µg/mL (≈ 0.837 µM) | 0.8 µg/mL (≈ 2.23 µM) | CCCCCCOc1ccc2c(c1)CCN=C2C=Cc1ccc(C#N)cc1 [Example 75, 1-(4-Cyanostyryl)-6-hexyloxy-3,4-dihydroisoquinoline]
3.2 µg/mL (≈ 9.43 µM) | 5.5 µg/mL (≈ 16.2 µM) | C(=Cc1ccccc1)C1=NCCc2cc(OCc3ccccc3)ccc21 [Example 53, 6-Benzyloxy-3,4-dihydro-1-styrylisoquinoline]
1.4 µg/mL (≈ 4.05 µM) | 3.7 µg/mL (≈ 10.7 µM) | C(=C\c1ccsc1)/C1=NCCc2cc(OCc3ccccc3)ccc21 [Example 106, (E)-6-Benzyloxy-3,4-dihydro-1-(3-thienyl)vinyl isoquinoline]
0.8 µg/mL (≈ 1.78 µM) | 1.4 µg/mL (≈ 3.11 µM) | CC(C)(C)c1ccc(Oc2ccc3c(c2)CCN=C3C=Cc2ccc(Cl)cc2Cl)cc1 [Example 71, 6-(4-t-Butylphenoxy)-1-(2,4-dichlorostyryl)-3,4-dihydroisoquinoline]
3.6 µg/mL (≈ 11.9 µM) | 5.4 µg/mL (≈ 17.8 µM) | C/C=C/C=C/C1=NCCc2cc(OCc3ccccc3)ccc21 [Example 130, (E,E)-6-Benzyloxy-3,4-dihydro-1-(penta-1,3-dienyl)isoquinoline]
0.4 µg/mL (≈ 1.07 µM) | 1 µg/mL (≈ 2.67 µM) | O=[N+]([O-])c1ccc(/C=C/C2=NCCc3cc(OCc4ccccc4)ccc32)o1 [Example 115, (E)-6-Benzyloxy-3,4-dihydro-1-[2-(5-nitro-2-furyl)]vinyl isoquinoline]
0.4 µg/mL (≈ 1.05 µM) | 1.1 µg/mL (≈ 2.88 µM) | CC(C)(C)c1ccc(Oc2ccc3c(c2)CCN=C3C=Cc2ccccc2)cc1 [Example 73, 6-(4-t-Butylphenoxy)-3,4-dihydro-1-styrylisoquinoline]
1.2 µg/mL (≈ 3.53 µM) | 2 µg/mL (≈ 5.88 µM) | CCCCOc1ccc2c(c1)CCN=C2C=Cc1ccccc1Cl [Example 12, 6-Butyloxy-1-(2-chlorostyryl)-3,4-dihydroisoquinoline]
1.1 µg/mL (≈ 2.48 µM) | 1.5 µg/mL (≈ 3.39 µM) | Clc1ccc(COc2ccc3c(c2)CCN=C3C=Cc2ccc(Cl)cc2Cl)cc1 [Example 85, 6-(4-Chlorobenzyloxy)-1-(2,4-dichlorostyryl)-3,4-dihydroisoquinoline]
7.4 µg/mL (≈ 21.4 µM) | 7.3 µg/mL (≈ 21.1 µM) | C(=C\c1cccs1)/C1=NCCc2cc(OCc3ccccc3)ccc21 [Example 104, (E)-6-Benzyloxy-3,4-dihydro-1-[2-(2-thienyl)vinyl]isoquinoline]
